{"source": "patent US9775898B2", "about": "“Vaccine composition comprising an immunogenic protein and combination adjuvants for use in eliciting antigen-specific T-cell responses” (TheVax Genetics Vaccine Co., Ltd., priority 2015, dated 2017)", "key": {"CD91": {"molecular_target": "CD91 (Homo sapiens, UniProt Q07954)", "sequence (Q07954 20-4544, species assumed)": "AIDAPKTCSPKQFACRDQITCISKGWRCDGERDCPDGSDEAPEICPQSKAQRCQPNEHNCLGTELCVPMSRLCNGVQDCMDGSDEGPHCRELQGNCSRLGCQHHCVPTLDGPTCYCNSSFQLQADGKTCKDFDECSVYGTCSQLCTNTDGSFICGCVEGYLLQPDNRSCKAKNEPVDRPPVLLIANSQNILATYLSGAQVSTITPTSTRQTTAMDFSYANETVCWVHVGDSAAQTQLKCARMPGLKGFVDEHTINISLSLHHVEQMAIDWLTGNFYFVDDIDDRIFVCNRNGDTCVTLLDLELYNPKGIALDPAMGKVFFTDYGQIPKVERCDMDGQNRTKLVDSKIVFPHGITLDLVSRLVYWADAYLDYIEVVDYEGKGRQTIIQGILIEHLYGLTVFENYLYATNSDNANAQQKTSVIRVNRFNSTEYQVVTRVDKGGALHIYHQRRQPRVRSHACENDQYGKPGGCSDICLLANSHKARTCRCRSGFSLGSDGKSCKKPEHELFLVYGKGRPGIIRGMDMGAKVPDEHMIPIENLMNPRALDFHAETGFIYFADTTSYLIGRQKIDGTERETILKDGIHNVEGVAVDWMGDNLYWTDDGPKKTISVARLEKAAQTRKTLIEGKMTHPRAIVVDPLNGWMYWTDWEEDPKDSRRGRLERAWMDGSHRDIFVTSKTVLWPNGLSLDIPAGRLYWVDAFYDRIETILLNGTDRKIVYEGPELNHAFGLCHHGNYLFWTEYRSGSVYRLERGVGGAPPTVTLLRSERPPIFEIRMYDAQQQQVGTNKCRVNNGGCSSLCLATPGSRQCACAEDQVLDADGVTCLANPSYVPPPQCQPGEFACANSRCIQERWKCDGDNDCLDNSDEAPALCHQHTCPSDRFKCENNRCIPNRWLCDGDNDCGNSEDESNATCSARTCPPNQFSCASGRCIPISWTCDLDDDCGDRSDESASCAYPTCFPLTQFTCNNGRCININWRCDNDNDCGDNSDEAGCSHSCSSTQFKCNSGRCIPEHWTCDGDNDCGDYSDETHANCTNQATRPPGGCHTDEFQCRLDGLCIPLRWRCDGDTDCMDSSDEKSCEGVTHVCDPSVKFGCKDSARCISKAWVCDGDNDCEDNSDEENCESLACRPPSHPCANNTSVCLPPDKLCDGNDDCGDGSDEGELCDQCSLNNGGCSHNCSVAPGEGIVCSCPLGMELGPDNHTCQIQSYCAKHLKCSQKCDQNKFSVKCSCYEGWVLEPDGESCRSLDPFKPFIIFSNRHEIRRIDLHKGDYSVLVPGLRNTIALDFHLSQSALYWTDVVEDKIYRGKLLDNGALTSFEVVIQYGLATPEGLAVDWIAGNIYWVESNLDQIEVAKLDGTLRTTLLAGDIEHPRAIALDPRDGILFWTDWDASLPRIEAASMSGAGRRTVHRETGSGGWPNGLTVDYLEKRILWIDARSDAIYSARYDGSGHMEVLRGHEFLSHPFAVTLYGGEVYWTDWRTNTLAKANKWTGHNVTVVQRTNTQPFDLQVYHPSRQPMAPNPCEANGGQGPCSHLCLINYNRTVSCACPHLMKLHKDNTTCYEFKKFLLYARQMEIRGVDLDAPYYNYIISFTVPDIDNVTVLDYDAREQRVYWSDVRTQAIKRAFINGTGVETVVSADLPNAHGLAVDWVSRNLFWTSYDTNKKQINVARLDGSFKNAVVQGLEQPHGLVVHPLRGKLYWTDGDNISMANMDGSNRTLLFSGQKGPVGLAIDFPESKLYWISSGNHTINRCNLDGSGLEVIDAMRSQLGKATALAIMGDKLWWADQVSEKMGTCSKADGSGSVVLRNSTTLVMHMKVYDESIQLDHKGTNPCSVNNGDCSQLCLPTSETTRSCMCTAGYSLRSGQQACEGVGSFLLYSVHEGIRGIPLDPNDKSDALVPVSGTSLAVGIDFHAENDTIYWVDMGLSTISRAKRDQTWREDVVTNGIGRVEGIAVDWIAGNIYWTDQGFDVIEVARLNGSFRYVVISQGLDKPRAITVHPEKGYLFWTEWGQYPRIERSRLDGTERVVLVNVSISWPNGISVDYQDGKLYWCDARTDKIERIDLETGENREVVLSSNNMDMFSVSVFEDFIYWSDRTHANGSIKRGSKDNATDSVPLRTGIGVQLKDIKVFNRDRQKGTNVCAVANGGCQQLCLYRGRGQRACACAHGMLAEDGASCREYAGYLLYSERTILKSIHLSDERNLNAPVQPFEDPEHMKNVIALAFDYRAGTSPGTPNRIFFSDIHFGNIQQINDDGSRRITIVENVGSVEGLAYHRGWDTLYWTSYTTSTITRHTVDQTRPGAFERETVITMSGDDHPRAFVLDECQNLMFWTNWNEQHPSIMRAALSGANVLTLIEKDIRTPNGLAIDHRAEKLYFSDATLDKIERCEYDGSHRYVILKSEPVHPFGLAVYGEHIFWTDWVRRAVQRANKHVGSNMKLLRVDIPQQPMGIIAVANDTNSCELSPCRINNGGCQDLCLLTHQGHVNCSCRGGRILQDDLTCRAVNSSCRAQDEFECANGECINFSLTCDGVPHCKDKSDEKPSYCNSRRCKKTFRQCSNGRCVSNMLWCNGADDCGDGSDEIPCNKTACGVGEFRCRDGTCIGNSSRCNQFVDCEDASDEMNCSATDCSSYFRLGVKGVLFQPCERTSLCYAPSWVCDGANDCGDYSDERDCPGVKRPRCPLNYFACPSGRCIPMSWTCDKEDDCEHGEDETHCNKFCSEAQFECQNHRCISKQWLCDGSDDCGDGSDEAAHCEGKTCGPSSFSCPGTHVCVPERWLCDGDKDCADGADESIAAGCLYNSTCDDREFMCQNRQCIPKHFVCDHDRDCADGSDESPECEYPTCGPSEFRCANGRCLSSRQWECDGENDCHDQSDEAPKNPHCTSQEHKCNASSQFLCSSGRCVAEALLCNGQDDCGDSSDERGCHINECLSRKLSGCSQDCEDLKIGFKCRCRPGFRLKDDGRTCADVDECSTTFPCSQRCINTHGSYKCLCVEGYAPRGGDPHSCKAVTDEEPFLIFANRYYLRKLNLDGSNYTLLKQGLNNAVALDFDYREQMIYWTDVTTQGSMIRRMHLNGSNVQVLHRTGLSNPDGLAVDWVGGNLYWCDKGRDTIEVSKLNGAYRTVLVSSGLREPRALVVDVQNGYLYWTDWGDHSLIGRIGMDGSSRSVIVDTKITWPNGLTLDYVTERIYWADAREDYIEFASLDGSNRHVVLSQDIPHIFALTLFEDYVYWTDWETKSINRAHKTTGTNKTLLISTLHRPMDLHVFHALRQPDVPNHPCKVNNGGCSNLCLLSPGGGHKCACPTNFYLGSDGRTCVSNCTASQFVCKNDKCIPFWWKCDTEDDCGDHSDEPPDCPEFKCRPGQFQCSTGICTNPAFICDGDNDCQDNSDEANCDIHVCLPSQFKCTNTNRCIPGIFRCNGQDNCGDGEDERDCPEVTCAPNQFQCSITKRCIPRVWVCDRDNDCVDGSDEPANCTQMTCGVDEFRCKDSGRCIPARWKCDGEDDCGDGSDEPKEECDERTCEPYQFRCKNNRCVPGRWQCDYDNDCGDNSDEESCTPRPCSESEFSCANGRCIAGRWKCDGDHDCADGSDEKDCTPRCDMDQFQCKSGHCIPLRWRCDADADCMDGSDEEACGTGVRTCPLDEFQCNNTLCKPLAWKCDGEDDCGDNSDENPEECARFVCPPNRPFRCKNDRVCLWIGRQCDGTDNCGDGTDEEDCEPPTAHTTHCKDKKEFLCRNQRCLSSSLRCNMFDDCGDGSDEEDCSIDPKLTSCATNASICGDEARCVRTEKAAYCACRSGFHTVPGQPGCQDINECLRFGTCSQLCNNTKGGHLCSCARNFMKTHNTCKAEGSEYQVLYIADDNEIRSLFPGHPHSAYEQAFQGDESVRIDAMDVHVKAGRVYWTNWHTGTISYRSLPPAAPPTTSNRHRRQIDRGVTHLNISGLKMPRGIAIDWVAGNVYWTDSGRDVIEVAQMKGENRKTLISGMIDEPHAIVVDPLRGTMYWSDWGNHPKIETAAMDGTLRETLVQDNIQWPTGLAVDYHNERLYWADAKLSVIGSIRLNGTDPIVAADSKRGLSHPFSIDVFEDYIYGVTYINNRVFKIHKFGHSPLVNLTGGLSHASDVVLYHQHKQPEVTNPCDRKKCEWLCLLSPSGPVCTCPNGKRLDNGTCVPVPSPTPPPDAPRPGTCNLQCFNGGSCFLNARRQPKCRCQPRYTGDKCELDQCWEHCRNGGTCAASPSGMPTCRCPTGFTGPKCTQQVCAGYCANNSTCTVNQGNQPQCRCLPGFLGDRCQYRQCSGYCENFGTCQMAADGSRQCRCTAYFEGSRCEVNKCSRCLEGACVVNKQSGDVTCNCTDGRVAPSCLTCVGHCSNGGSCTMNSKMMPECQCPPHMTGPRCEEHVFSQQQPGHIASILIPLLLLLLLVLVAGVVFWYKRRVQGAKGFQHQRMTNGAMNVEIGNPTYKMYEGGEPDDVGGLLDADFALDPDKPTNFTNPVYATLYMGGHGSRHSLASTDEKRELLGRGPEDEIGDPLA", "conditions": "read-out: binding affinity to CD91 (Kd); cited from earlier work"}, "[1]": {"tested_on": "E7 antigen specific immune response", "assay": "Immunogenicity analysis of different immunogenic composition (humoral and cell mediated)", "assay_type": "in vivo", "conditions": "mice"}}, "note": "pKd: −log10 of the molar value.", "data": [{"substance": "RAP1: 39 kDa ER resident protein and molecular chaperone for LDL receptor-related protein", "values": [{"measurement": "pKd", "setting": "CD91", "value": "~8.52"}]}, {"substance": "E7 antigen: HPV16 E7 protein (full length), SEQ ID NO: 21, antigen itself only", "values": [{"measurement": "E7 antigen specific cell mediated immune response", "setting": "[1]; combined with GPI-0100 or QS-21", "value": "weak to strong"}]}, {"substance": "QS-21 [reference compound]", "values": [{"measurement": "adjuvant comparison for stimulating both humoral and cell mediated immune responses", "setting": "[1]; with E7 immunogenic proteins, compared with alum", "value": "better adjuvants"}]}]}
